Assay results reported in BindingDB's records for doi:10.1016/j.bmcl.2006.01.095 (Technische Universität Graz, 2006).
pKi: −log10 of the molar value.

Columns and labels:
[1] = Inhibition of jack beans alpha-mannosidase
[2] = Inhibition of Streptomyces plicatus beta-D-hexosaminidase

pKi [1] | pKi [2] | Compound
4.19 |  | CN(C)c1ccc(-c2cnc(-c3ccc(S(=O)(=O)NCCCCCCN4C[C@H](O)[C@@H](O)[C@H](O)[C@H]4CO)cc3)o2)cc1 [4-(5-(4-(dimethylamino)phenyl)oxazol-2-yl)-N-(6-((2R,3R,4R,5S)-3,4,5-trihydroxy-2-(hydroxymethyl)piperidin-1-yl)hexyl)benzenesulfonamide]
 | 5.74 | CC(=O)N[C@H]1CN(CCCCCCNS(=O)(=O)c2cccc3c(N(C)C)cccc23)[C@H](CO)[C@@H](O)[C@@H]1O [N-((3S,4R,5R,6R)-1-(6-(1-(dimethylamino)naphthalene-5-sulfonamido)hexyl)-4,5-dihydroxy-6-(hydroxymethyl)piperidin-3-yl)acetamide]
